Test results reported in paper PMC5840523, “Assessment of a pretomanid analogue library for African trypanosomiasis: Hit-to-lead studies on 6-substituted 2-nitro-6,7-dihydro-5H-imidazo[2,1-b][1,3]thiazine 8-oxides” (Bioorganic & Medicinal Chemistry Letters, 2018).
Converted amounts (≈) assume the structure as drawn. Where two headings read alike, the source gives them in different places. Each block holds one compound with its values, some of them ahead of it.

Assays:
in vitro = conditions: dog, MDCK-MDR1, Permeability Papp
T. b. brucei 427 [1] = experiment: T. b. brucei 427 growth inhibition (Scynexis); type: cell-based, Trypanosoma brucei brucei; conditions: for Selectivity Index: L929 vs T. b. brucei; for IC50: Trypanosoma brucei, growth inhibition of T. b. brucei 427, mean ± SD
L929 mouse fibroblasts = experiment: Cytotoxicity toward L929 mouse fibroblasts (Scynexis); type: cell-based
[2] = Kinetic aqueous solubility in pH 7.4 PBS; type: physicochemical
Text: Table 1 Inhibitory potency, metabolic stability, aqueous solubility, and MDCK-MDR1 cell permeability for 15 screening hits against T. b. brucei. | column: Solubility ^c / (µg/mL)

Mouse liver S9 stability = type: in vitro ADME; conditions: CD-1, mouse, mouse liver S9 subcellular fraction, half-life in mouse liver S9 fraction; read-out: Mouse S9 t1/2
[3] = tested on: human lung fibroblasts (MRC-5 cells); experiment: Cytotoxicity toward MRC-5 cells (University of Antwerp); type: cell-based
Leishmania infantum = experiment: L. infantum growth inhibition (University of Antwerp); type: cell-based; conditions: mean of 2 to 5 determinations
T. b. brucei 427 [4] = experiment: T. b. brucei growth inhibition (University of Antwerp); type: cell-based, Trypanosoma brucei brucei; conditions: for IC50: T. b. brucei 427, mean of 2 to 5 determinations, read-out: IC50 T. b. bruc
Trypanosoma cruzi = experiment: T. cruzi growth inhibition (University of Antwerp); type: cell-based; conditions: mean of 2 to 5 determinations
T. b. rhodesiense = T. b. rhodesiense growth inhibition (University of Antwerp); type: cell-based, Trypanosoma brucei rhodesiense; conditions: mean of 2 to 5 determinations, read-out: IC50 T. b. rhod
T. b. brucei (EATRO 110) = experiment: Acute (stage 1) HAT infection mouse model; type: in vivo, T. b. brucei; female Swiss Webster mice; conditions: 2 mg/kg i.p. once daily for 4 days
Protocol: Therefore, 24 was examined in a stage 1 HAT mouse model.[14] Briefly, dosing was orally once daily for four days, starting 24 h postinfection, and parasitemia was assessed weekly via tail vein blood smears (see the Supporting Information). Excellent activity was observed (Table 4), with 24 providing complete cures (i.e. parasite free blood smears after >30 days) to all mice at doses as low as 5 mg/kg, similar to the control drug pentamidine (given i.p. at 2 mg/kg), whereas the vehicle only mice died on day 7. […] Here, oral dosing of 24 (at 12.5 to 50 mg/kg once daily for seven days from day 21 postinfection) led to significant increases in survival times in comparison to untreated controls (66–70 days vs 31 days; Table 5), although cure rates were inadequate (0–20%). […]
Mouse Model f or Acu te HAT Inf ection. Compound 24 was tested for in vivo effi cac y against acute HAT infection caused b y T. b. brucei (EATRO 110 strain) at the Haskins Laboratories, Pace Universit y. […] Infected animals or th ose showing si gns of infectionwer e euthanized.Untreated infected contr ol animals died after 5-7 days; mice remaining parasite free for more than 30 da ys beyond the end of the tr eatment period w er e con sidered cur ed. […]

T. b. brucei (TREU 667) = experiment: CNS (stage 2, chronic) HAT infection mouse model; type: in vivo, T. b. brucei; female Swiss Webster mice
Protocol: Therefore, 24 was examined in a stage 1 HAT mouse model.[14] Briefly, dosing was orally once daily for four days, starting 24 h postinfection, and parasitemia was assessed weekly via tail vein blood smears (see the Supporting Information). Excellent activity was observed (Table 4), with 24 providing complete cures (i.e. parasite free blood smears after >30 days) to all mice at doses as low as 5 mg/kg, similar to the control drug pentamidine (given i.p. at 2 mg/kg), whereas the vehicle only mice died on day 7. […]
Mouse Model for Chronic HAT Inf ection. Compound 24 was tested for in vi vo efficac y against chronic HAT infection caused b y T. b. brucei (TREU 667 strain) at the Haskin s Laboratories, Pace Universit y. […]
suspension formulation (0.8% CMC, 0.1% SDS in water) to groups of 8 or 10infected f emal e Swiss Webster mice, starting 21 d postinfection, according to a report ed method. 5 Animals remaining parasite free for more than 180 da ys beyond the end of the treatment period were […]

[5] = Homo sapiens, MRC5, cytotoxicity toward human lung fibroblasts
[6] = Trypanosoma brucei, RHODESIENSE
[7] = cytotoxicity toward human lung fibroblasts
[8] = 10 mg/kg single i.p. dose on day 4
[9] = 10 mg/kg single i.p. dose on day 21

Compound: O=[N+]([O-])c1cn2c(n1)SC(COCc1ccc(OCc3ccccc3)cc1)C2 (stereo not drawn) [Compound 15]
- Selectivity Index (T. b. brucei 427 [1]): >22
- IC50 (T. b. brucei 427 [1]): 0.46 ± 0.21 mg/L (≈ 1.16 µM)
- IC50 (L929 mouse fibroblasts): > 10 mg/L
- solubility [2]: 1.2 µg/mL (≈ 3.02 µM)
- half-life (Mouse liver S9 stability): < 1.17 h
- Papp at 1 h, 3 µM (in vitro): 583 nm/s

Compound: O=[N+]([O-])c1cn2c(n1)OC[C@@H](Oc1cc(-c3ccc(C(F)(F)F)nc3)ccn1)C2 [Compound 22]
- Selectivity Index (T. b. brucei 427 [1]): >3.6
- IC50 (T. b. brucei 427 [1]): 2.8 ± 0.2 mg/L (≈ 6.87 µM)
- IC50 (L929 mouse fibroblasts): > 10 mg/L
- solubility [2]: 10 µg/mL (≈ 24.6 µM)
- half-life (Mouse liver S9 stability): 2.43 h
- Papp at 1 h, 3 µM (in vitro): 793 nm/s

Compound: CN1CC(OCc2ccc(OCc3ccccc3)cc2)Cn2nc([N+](=O)[O-])cc21 (stereo not drawn) [Compound 23]
- Selectivity Index (T. b. brucei 427 [1]): >3.3
- IC50 (T. b. brucei 427 [1]): 3 ± 0.9 mg/L (≈ 7.61 µM)
- IC50 (L929 mouse fibroblasts): > 10 mg/L
- solubility [2]: 2.4 µg/mL (≈ 6.08 µM)
- half-life (Mouse liver S9 stability): < 1.17 h
- Papp at 1 h, 3 µM (in vitro): 363 nm/s

Compound: O=[N+]([O-])c1cn2c(n1)SCC(OCc1ccc(OCc3ccccc3)cc1)C2 (stereo not drawn) [Compound 31]
- IC50 [3, 5]: > 64 µM
- IC50 (Leishmania infantum; Leishmania infantum): 45 µM
- IC50 (T. b. brucei 427 [4]; Trypanosoma brucei): 1.4 µM
- IC50 (Trypanosoma cruzi; Trypanosoma cruzi): 0.49 µM
- IC50 (T. b. rhodesiense; [6]): 1.2 µM

Compound: O=[N+]([O-])c1cn2c(n1)SCC(OCc1ccc(-c3ccc(OC(F)(F)F)cc3)cn1)C2 (stereo not drawn) [Compound 32]
- IC50 [3, 5]: 21 µM
- IC50 (Leishmania infantum; Leishmania infantum): 7.5 µM
- IC50 (T. b. brucei 427 [4]; Trypanosoma brucei): 4.3 µM
- IC50 (Trypanosoma cruzi; Trypanosoma cruzi): 1.4 µM
- IC50 (T. b. rhodesiense; [6]): 2.1 µM

Compound: O=[N+]([O-])c1cn2c(n1)[S+]([O-])CC(Oc1ccc(C(F)(F)F)cn1)C2 (stereo not drawn) [Compound 34]
- IC50 [3, 7]: > 64 µM
- IC50 (Leishmania infantum): 13 µM
- potency relative to 12 against T. b. brucei (fold less potent) (T. b. brucei 427 [4]): 4- to 6 fold
- IC50 (T. b. brucei 427 [4]): 1.2 µM
- IC50 (Trypanosoma cruzi): 4.1 µM
- IC50 (T. b. rhodesiense): 0.51 µM

Compound: O=[N+]([O-])c1cn2c(n1)[S+]([O-])CC(Oc1ccc(C(F)(F)F)cn1)C2 (stereo not drawn) [Compound 37]
- IC50 [3, 7]: 30 µM
- IC50 (Leishmania infantum): 41 µM
- IC50 (T. b. brucei 427 [4]): 17 µM
- IC50 (Trypanosoma cruzi): 12 µM
- IC50 (T. b. rhodesiense): 9.9 µM

Compound: N=C(N)c1ccc(OCCCCCOc2ccc(C(=N)N)cc2)cc1 [Pentamidine, pentamidine, reference compound]
- Cured (T. b. brucei (EATRO 110)): 100%
- Cured/Total (T. b. brucei (EATRO 110)): 3/3
- Mean survival (T. b. brucei (EATRO 110)): >30 days

Compound: Berenil [reference compound]
- Cured (T. b. brucei (TREU 667); [8]): 100%
- Cured/Total (T. b. brucei (TREU 667); [8]): 5/5
- Cured (T. b. brucei (TREU 667); [9]): 0%
- Cured/Total (T. b. brucei (TREU 667); [9]): 0/5
- Mean relapse time (T. b. brucei (TREU 667); [9]): 41 days

The next lines start with results.

- Papp at 1 h, 3 µM (in vitro): 732 nm/s
Compound: CSc1ccc(OCc2ncc([N+](=O)[O-])n2C)cc1 [Compound 4, fexinidazole, reference compound]

- solubility [2]: 1.3 µg/mL (≈ 3.04 µM)
- half-life (Mouse liver S9 stability): < 1.17 h
- Papp at 1 h, 3 µM (in vitro): 651 nm/s
Compound: CC1(COCc2ccc(OCc3ccccc3)cc2)Cn2cc([N+](=O)[O-])nc2[S+]1[O-] (stereo not drawn) [Compound 11]
- Selectivity Index (T. b. brucei 427 [1]): >77
- IC50 (T. b. brucei 427 [1]): 0.13 ± 0.04 mg/L (≈ 0.304 µM)
- IC50 (L929 mouse fibroblasts): > 10 mg/L

- solubility [2]: 1.2 µg/mL (≈ 2.92 µM)
- Papp at 1 h, 3 µM (in vitro): 465 nm/s
Compound: CC1(COCc2ccc(OCc3ccccc3)cc2)Cn2cc([N+](=O)[O-])nc2S1 (stereo not drawn) [Compound 20]
- Selectivity Index (T. b. brucei 427 [1]): >4.5
- IC50 (T. b. brucei 427 [1]): 2.2 ± 0.7 mg/L (≈ 5.35 µM)
- IC50 (L929 mouse fibroblasts): > 10 mg/L

- solubility [2]: 18 µg/mL (≈ 48.7 µM)
- half-life (Mouse liver S9 stability): 3.98 h
- Papp at 1 h, 3 µM (in vitro): 769 nm/s
Compound: COc1ccc(-c2ccc(O[C@@H]3COc4nc([N+](=O)[O-])cn4C3)nc2)cn1 [Compound 21]
- Selectivity Index (T. b. brucei 427 [1]): >3.7
- IC50 (T. b. brucei 427 [1]): 2.7 ± 0.5 mg/L (≈ 7.31 µM)
- IC50 (L929 mouse fibroblasts): > 10 mg/L

- IC50 (Trypanosoma cruzi; Trypanosoma cruzi): 2.2 µM
Compound: O=[N+]([O-])c1cn2c(n1)SCC(Oc1ccc(OC(F)(F)F)cc1)C2 (stereo not drawn) [Compound 28]
- IC50 [3, 5]: 51 µM
- IC50 (Leishmania infantum; Leishmania infantum): 7 µM
- IC50 (T. b. brucei 427 [4]; Trypanosoma brucei): 40 µM
- IC50 (T. b. rhodesiense; [6]): 59 µM

- IC50 (Trypanosoma cruzi; Trypanosoma cruzi): 5.3 µM
Compound: O=[N+]([O-])c1cn2c(n1)SCC(Oc1ccc(C(F)(F)F)cn1)C2 (stereo not drawn) [Compound 29]
- IC50 [3, 5]: > 64 µM
- IC50 (Leishmania infantum; Leishmania infantum): 10 µM
- IC50 (T. b. brucei 427 [4]; Trypanosoma brucei): > 64 µM
- IC50 (T. b. rhodesiense; [6]): > 64 µM

- IC50 (Trypanosoma cruzi; Trypanosoma cruzi): 1.1 µM
Compound: O=[N+]([O-])c1cn2c(n1)SCC(OCc1ccc(OC(F)(F)F)cc1)C2 (stereo not drawn) [Compound 30]
- IC50 [3, 5]: > 64 µM
- IC50 (Leishmania infantum; Leishmania infantum): 55 µM
- IC50 (T. b. brucei 427 [4]; Trypanosoma brucei): 44 µM
- IC50 (T. b. rhodesiense; [6]): 36 µM

- IC50 (Trypanosoma cruzi): 2.1 µM
Compound: O=[N+]([O-])c1cn2c(n1)[S+]([O-])CC(Oc1ccc(OC(F)(F)F)cc1)C2 (stereo not drawn) [Compound 33]
- IC50 [3, 7]: 23 µM
- IC50 (Leishmania infantum): 7 µM
- potency relative to 12 against T. b. brucei (fold less potent) (T. b. brucei 427 [4]): 4- to 6 fold
- IC50 (T. b. brucei 427 [4]): 1.6 µM
- IC50 (T. b. rhodesiense): 0.98 µM

- IC50 (Trypanosoma cruzi): 7.7 µM
Compound: O=[N+]([O-])c1cn2c(n1)[S+]([O-])CC(Oc1ccc(OC(F)(F)F)cc1)C2 (stereo not drawn) [Compound 36]
- IC50 [3, 7]: > 64 µM
- IC50 (Leishmania infantum): > 64 µM
- IC50 (T. b. brucei 427 [4]): 55 µM
- IC50 (T. b. rhodesiense): 27 µM

- IC50 (Trypanosoma cruzi): 9.1 µM
Compound: O=[N+]([O-])c1cn2c(n1)[S+]([O-])CC(OCc1ccc(OC(F)(F)F)cc1)C2 (stereo not drawn) [Compound 38]
- IC50 [3, 7]: > 64 µM
- IC50 (Leishmania infantum): > 64 µM
- IC50 (T. b. brucei 427 [4]): 5.6 µM
- IC50 (T. b. rhodesiense): 5.1 µM

- IC50 (Trypanosoma cruzi): 0.14 µM
Compound: O=[N+]([O-])c1cn2c(n1)[S+]([O-])CC(OCc1ccc(-c3ccc(OC(F)(F)F)cc3)cn1)C2 (stereo not drawn) [Compound 39, 2-Nitro-6-({5-[4-(trifluoromethoxy)phenyl]pyridin-2-yl}methoxy)-6,7-dihydro-5H-imidazo[2,1-b][1,3]thiazine 8-oxide]
- IC50 [3, 7]: 54 µM
- IC50 (Leishmania infantum): 2 µM
- IC50 (T. b. brucei 427 [4]): 0.075 µM
- IC50 (T. b. rhodesiense): 0.1 µM

- IC50 (Trypanosoma cruzi; Trypanosoma cruzi): 3.5 µM
Compound: O=[N+]([O-])c1cn2c(n1)S(=O)(=O)CC(Oc1ccc(OC(F)(F)F)cc1)C2 (stereo not drawn) [Compound 40]
- IC50 [3, 5]: > 64 µM
- IC50 (Leishmania infantum; Leishmania infantum): 32 µM
- IC50 (T. b. brucei 427 [4]; Trypanosoma brucei): 15 µM
- IC50 (T. b. rhodesiense; [6]): 13 µM

- IC50 (Trypanosoma cruzi; Trypanosoma cruzi): 2.6 µM
Compound: O=[N+]([O-])c1cn2c(n1)S(=O)(=O)CC(Oc1ccc(C(F)(F)F)cn1)C2 (stereo not drawn) [Compound 41]
- IC50 [3, 5]: 46 µM
- IC50 (Leishmania infantum; Leishmania infantum): 30 µM
- IC50 (T. b. brucei 427 [4]; Trypanosoma brucei): 19 µM
- IC50 (T. b. rhodesiense; [6]): 11 µM
